{"source": "patent US7264969B1", "about": "“Carrier system for specific artery wall gene delivery” (University of Utah Research Foundation, priority 2000, dated 2007)", "key": {"DNase I": {"system": "DNase I", "experiment": "DNase protection assay", "conditions": "37° C.; charge ratio 2/1 (+/−); 10 times excess of DNase I; FIG. 3B", "description": "AWBP-PEG-g-PLL/pDNA complexes were prepared at the charge ratios of 2/1 (+/−) and incubated in the presence of 10 times excess of DNase I. At 0, 5, 10, 15, 20, 60, and 120 minutes after incubation, 50 μl of the sample was transferred into another tube and mixed with 100 μl of stop solution (400 mM NaCl and 100 mM EDTA) using mild agitation with a vortexer. The sample was then mixed with 12 μl of 10% (w/v) sodium dodecyl sulfate (SDS) and incubated at 65° C. overnight. DNA was extracted with the mixture of Tris-EDTA saturated phenol:chloroform:isoamyl alcohol (25:24:1, v/v). The extracted DNA was precipitated with 700 μl of absolute ethanol at 12,000 rpm for 30 minutes and washed with 70% ethanol. The DNA precipitate was air-dried and then dissolved in 10 μl TE buffer. The plasmid integrity was assessed by electrophoresis in a 1% agarose gel."}, "[1]": {"system": "bovine aorta endothelial cells", "experiment": "Transfection assay (luciferase gene expression)", "assay_type": "cell-based", "description": "(§1) Gene expression. (Transfection assay) Primary bovine aorta endothelial cells and smooth muscle cells were prepared, cultured, characterized, and identified as described in L. Yu et al., supra. Bovine aorta endothelial cells (5×10^5/well) and smooth muscle cells (2×10^5/well) were seeded in 24-well plates with 1 ml Dulbecco's modified Eagle medium (DMEM, Hyclone Laboratories, Logan, Utah) containing 10% fetal bovine serum (FBS, Hyclone Laboratories) and incubated for 24 hours to 70-80% confluency. The AWBP-PEG-g-PLL/pCMV-Luc complexes were freshly prepared in PBS for the transfection with fixed amount of plasmid DNA (2 μg/well) and various amounts of AWBP-PEG-g-PLL. After incubation of complexes for 30 minutes at room temperature, 100 μl of complex solution was added to the cells and then incubated for 3 hours at 37° C. in 5% CO2 atmosphere. After replacement of media, the cells were incubated for 40 hours under the same conditions. The cells were washed three times with PBS buffer and made ready for the reporter gene expression assay.\n(§2) (Gene expression assay) Transgene expression was evaluated by luciferase activity of cell lysates from transfected bovine aorta endothelial cells and smooth muscle cells. Measurement of luciferase activity was performed according to the manufacturer's instruction (Luciferase Assay System, Promega, Madison, Wis.). Briefly, the transfected cells were lysed with 1× lysis buffer (1% Triton X-100), 100 mM KPO4, 2 mM dithiothreitol, 10% glycerol, and 2 mM EDTA, pH 7.8) for 15 minutes at room temperature. To measure the luciferase activity, 20 μl aliquot of cell lysate was mixed with 50 μl of luciferase assay reagent at room temperature and inserted in the luminometer. Light emission was measured in triplicate over 10 s and expressed as relative light units (RLUs). RLUs were normalized from the protein content of each sample, which was determined by BCA protein assay."}, "[2]": {"system": "bovine aorta smooth muscle cells", "experiment": "Transfection assay (luciferase gene expression)", "assay_type": "cell-based", "description": "as §1, §2"}, "[3]": {"system": "bovine aorta endothelial cells", "experiment": "Transfection inhibition assay with free AWBP", "assay_type": "cell-based", "conditions": "free AWBP 31.25 μM to 500 μM", "description": "(§3) (Transfectioninhibition assay). Bovine aorta endothelial cells (5×10^5/well) and smooth muscle cells (2×10^5/well) were seeded in 24-well plates 1 day prior to transfection with 70 to 80% confluence. The AWBP-PEG-g-PLL/pCMV-Luc complexes were freshly prepared in PBS buffer for the transfection with a fixed amount of plasmid DNA (2 μg/well) and AWBP-PEG-g-PLL (4 μg/well). After addition of various amounts of free artery wall binding peptide (range from 31.3 μM to 1.0 mM) for 20 minutes at 4° C., 100 μl AWBP-PEG-g-PLL/pCMV-Luc solution was added to the cells. All the other conditions were the same as described above for the transfection assay.\nas §2, with “To measure the luciferase activity, 20 μl aliquot of cell lysate was mixed with 50 μl of luciferase assay reagent at room temperature and inserted in the luminometer.” left out"}, "[4]": {"system": "bovine aorta smooth muscle cells", "experiment": "Transfection inhibition assay with free AWBP", "assay_type": "cell-based", "conditions": "free AWBP 31.25 μM to 500 μM", "description": "as §3\nas §2, with “To measure the luciferase activity, 20 μl aliquot of cell lysate was mixed with 50 μl of luciferase assay reagent at room temperature and inserted in the luminometer.” left out"}}, "note": "Where no end group is shown, it is not given here.", "data": [{"substance": "AWBP-PEG-g-PLL: artery wall binding peptide (SEQ ID NO:2) conjugated to poly(ethylene glycol)-grafted-poly(L-lysine), about 4 mol AWBP per mole (CGRALVDTLKFVTQAEGAK; also: conjugated to PEG-grafted poly(L-lysine), about 4 mol peptide per mole, site not given here; listed as Homo sapiens)", "values": [{"measurement": "time for which pDNA is protected from digestion with DNase", "setting": "DNase I", "value": "at least 2 hours"}, {"measurement": "luciferase activity of cell lysate", "setting": "[1]; ratio carrier to plasmid DNA from 1.5:1 to 2:1, FIG. 6A", "value": "significantly increased"}, {"measurement": "luciferase activity of cell lysate", "setting": "[1]; ratio carrier to plasmid DNA from 2:1 to 5:1, FIG. 6A", "value": "remained constant"}, {"measurement": "luciferase activity of cell lysate", "setting": "[2]; ratio carrier to plasmid DNA from 1.5:1 to 2:1, FIG. 6B", "value": "significantly increased"}, {"measurement": "luciferase activity of cell lysate", "setting": "[2]; ratio carrier to plasmid DNA from 2:1 to 5:1, FIG. 6B", "value": "remained constant"}]}, {"substance": "AWBP: synthetic peptide based on arterial binding domain of apo B-100 (residues 1000-1016) with cysteine added to amino-terminus (CGRALVDTLKFVTQAEGAK; listed as Homo sapiens)", "values": [{"measurement": "effect of free AWBP on gene transfer by AWBP-PEG-g-PLL/pDNA complexes", "setting": "[3]", "value": "significantly inhibit"}, {"measurement": "effect of free AWBP on gene transfer by AWBP-PEG-g-PLL/pDNA complexes", "setting": "[4]", "value": "significantly inhibit"}]}]}
